From US8697739B2, “Bicyclic acetyl-CoA carboxylase inhibitors and uses thereof” (Novartis AG, priority 2010, dated 2014)
pIC50: −log10 of the molar value.

Molecular target: T1, human acetyl-CoA carboxylase 2 (ACC2) (Homo sapiens, UniProt O00763)
T1 construct: The cDNA encoding amino acids 144 to 2458 of human acetyl-CoA carboxylase 2; made in house; host or cells: Sf9 insect cells (baculovirus, pFastBac1)
Experiment: Acetyl-CoA carboxylase enzyme assay (malonyl-CoA formation by LC/MS/MS)
Assay type: biochemical
Conditions: recombinant human ACC2 (aa 144-2458); read-out: IC50 ACC2
In short: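 Malonyl-CoA formation was read by LC/MS/MS MRM against a [13C3]-malonyl-CoA internal standard, after acetic acid quench. The enzyme was baculovirus/Sf9-expressed human ACC2 residues 144–2458, given 15 minutes room-temperature compound preincubation in HEPES pH 7.5 buffer with MgCl2, citrate and DTT. Substrate solution held 50 μM acetyl-CoA, 120 μM ATP and 2 mM KHCO3.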

T1 sequence (O00763 144-2458): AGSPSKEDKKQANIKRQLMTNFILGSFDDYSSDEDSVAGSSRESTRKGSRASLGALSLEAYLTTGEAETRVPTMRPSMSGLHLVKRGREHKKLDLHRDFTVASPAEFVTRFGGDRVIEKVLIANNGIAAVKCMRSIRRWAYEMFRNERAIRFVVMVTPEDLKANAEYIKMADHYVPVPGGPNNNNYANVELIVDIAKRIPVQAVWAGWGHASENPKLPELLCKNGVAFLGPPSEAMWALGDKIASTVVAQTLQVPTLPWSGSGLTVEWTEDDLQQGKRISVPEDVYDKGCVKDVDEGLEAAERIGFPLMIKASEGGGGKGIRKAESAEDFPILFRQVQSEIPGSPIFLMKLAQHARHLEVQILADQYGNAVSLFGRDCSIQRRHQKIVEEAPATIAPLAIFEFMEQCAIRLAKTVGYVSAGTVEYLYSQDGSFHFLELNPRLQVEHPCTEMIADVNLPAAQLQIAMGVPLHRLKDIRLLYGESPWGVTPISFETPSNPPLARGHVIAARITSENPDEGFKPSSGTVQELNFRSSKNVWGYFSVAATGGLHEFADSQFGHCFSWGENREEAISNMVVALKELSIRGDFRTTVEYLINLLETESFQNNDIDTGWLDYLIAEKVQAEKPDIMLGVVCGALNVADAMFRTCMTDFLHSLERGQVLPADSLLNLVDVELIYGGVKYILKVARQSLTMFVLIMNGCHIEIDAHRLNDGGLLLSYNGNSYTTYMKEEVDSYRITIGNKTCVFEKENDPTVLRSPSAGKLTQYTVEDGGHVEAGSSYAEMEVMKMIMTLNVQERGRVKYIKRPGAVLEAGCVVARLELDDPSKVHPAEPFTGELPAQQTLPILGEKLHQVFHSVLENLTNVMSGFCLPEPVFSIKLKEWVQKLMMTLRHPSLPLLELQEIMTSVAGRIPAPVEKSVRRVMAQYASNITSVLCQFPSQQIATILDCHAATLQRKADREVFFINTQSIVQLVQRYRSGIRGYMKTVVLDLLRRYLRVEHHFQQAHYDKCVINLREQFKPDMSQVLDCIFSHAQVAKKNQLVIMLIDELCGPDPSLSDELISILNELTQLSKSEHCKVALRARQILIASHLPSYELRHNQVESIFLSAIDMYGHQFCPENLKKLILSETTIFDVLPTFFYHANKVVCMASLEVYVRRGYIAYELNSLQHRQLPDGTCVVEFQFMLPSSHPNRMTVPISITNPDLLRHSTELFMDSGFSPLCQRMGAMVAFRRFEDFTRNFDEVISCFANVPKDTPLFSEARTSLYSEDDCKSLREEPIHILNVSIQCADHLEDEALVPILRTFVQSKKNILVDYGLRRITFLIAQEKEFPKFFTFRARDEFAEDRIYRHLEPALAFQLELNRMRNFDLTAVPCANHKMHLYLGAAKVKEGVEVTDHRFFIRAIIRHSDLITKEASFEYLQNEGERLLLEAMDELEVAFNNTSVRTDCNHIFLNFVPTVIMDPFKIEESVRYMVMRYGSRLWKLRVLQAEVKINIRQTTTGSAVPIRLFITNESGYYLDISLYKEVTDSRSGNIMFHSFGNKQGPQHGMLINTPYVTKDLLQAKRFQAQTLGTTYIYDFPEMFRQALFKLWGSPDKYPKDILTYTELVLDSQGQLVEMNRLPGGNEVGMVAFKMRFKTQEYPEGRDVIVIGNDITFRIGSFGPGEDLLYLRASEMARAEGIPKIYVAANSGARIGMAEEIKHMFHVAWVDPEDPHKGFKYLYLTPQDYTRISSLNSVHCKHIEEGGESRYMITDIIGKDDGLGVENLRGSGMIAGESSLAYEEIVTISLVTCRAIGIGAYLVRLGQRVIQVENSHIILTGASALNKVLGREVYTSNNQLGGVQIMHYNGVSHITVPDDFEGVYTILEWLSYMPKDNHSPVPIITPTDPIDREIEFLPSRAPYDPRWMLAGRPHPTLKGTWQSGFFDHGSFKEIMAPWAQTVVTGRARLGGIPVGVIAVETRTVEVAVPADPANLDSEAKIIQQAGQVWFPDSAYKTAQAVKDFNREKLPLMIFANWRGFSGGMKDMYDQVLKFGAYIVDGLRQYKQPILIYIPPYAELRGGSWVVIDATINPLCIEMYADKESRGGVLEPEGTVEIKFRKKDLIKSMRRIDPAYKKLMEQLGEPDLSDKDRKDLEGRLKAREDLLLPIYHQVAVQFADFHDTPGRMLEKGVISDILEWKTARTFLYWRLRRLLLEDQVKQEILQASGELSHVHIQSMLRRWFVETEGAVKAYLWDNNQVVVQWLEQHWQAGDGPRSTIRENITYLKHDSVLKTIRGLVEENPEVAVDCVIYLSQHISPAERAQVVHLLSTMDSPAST

SMILES | pIC50
COCc1nnc(-c2ccc(NS(=O)(=O)c3ccc4nc(-c5ccccc5)[nH]c4c3)cc2)o1 [Example 520, N-(4-(5-(methoxymethyl)-1,3,4-oxadiazol-2-yl)phenyl)-2-phenyl-1H-benzo[d]imidazole-6-sulfonamide] | 5.03
CC(C)OC(=O)c1ccc(NS(=O)(=O)c2ccc3[nH]c(Nc4ccc5c(c4)OCCO5)nc3c2)cc1 [Example 526, isopropyl 4-(2-(2,3-dihydrobenzo[b][1,4]dioxin-6-ylamino)-1H-benzo[d]imidazole-5-sulfonamido)benzoate] | 6.75
CC(C)OC(=O)c1ccc(NS(=O)(=O)c2ccc3[nH]c(Nc4ccc5nsnc5c4)nc3c2)cc1 [Example 527, isopropyl 4-(2-(benzo[c][1,2,5]thiadiazol-5-ylamino)-1H-benzo[d]imidazole-5-sulfonamido)benzoate] | 6.77
CC(C)OC(=O)c1ccc(NS(=O)(=O)c2ccc3[nH]c(Nc4ccc(Cl)cc4)nc3c2)cc1 [Example 529, isopropyl 4-(2-(4-chlorophenylamino)-1H-benzo[d]imidazole-5-sulfonamido)benzoate] | 6.19
COc1cc(Nc2nc3cc(S(=O)(=O)Nc4ccc(C(=O)OC(C)C)cc4)ccc3[nH]2)cc(OC)c1 [Example 530, isopropyl 4-(2-(3,5-dimethoxyphenylamino)-1H-benzo[d]imidazole-5-sulfonamido)benzoate] | 6.21
COc1ccc(Nc2nc3cc(S(=O)(=O)Nc4ccc(C(=O)OC(C)C)cc4)ccc3[nH]2)cc1OC [Example 531, isopropyl 4-(2-(3,4-dimethoxyphenylamino)-1H-benzo[d]imidazole-5-sulfonamido)benzoate] | 6.61
CC(C)OC(=O)c1ccc(NS(=O)(=O)c2ccc3[nH]c(Nc4ccc(N5CCOCC5)cc4)nc3c2)cc1 [Example 532, isopropyl 4-(2-(4-morpholinophenylamino)-1H-benzo[d]imidazole-5-sulfonamido)benzoate] | 6.96
CCOC(=O)Nc1ccc(Nc2nc3cc(S(=O)(=O)Nc4ccc(C(=O)OC(C)C)cc4)ccc3[nH]2)cc1 [Example 534, isopropyl 4-(2-(4-(ethoxycarbonylamino)phenylamino)-1H-benzo[d]imidazole-5-sulfonamido)benzoate] | 6.28
CC(C)OC(=O)c1ccc(NS(=O)(=O)c2ccc3[nH]c(Nc4cccc(F)c4)nc3c2)cc1 [Example 535, isopropyl 4-(2-(3-fluorophenylamino)-1H-benzo[d]imidazole-5-sulfonamido)benzoate] | 6.65
CCN(CC)c1ccc(Nc2nc3cc(S(=O)(=O)Nc4ccc(C(=O)OC(C)C)cc4)ccc3[nH]2)cc1 [Example 537, isopropyl 4-(2-(4-(diethylamino)phenylamino)-1H-benzo[d]imidazole-5-sulfonamido)benzoate] | 6.54
CC(C)OC(=O)c1ccc(NS(=O)(=O)c2ccc3[nH]c(Nc4cccc([N+](=O)[O-])c4)nc3c2)cc1 [Example 538, isopropyl 4-(2-(3-nitrophenylamino)-1H-benzo[d]imidazole-5-sulfonamido)benzoate] | 7.11
CC(C)OC(=O)c1ccc(NS(=O)(=O)c2ccc3[nH]c(Nc4ccc(N5CCOCC5)nc4)nc3c2)cc1 [Example 539, isopropyl 4-(2-(6-morpholinopyridin-3-ylamino)-1H-benzo[d]imidazole-5-sulfonamido)benzoate] | 6.66
Cc1cccc(C)c1Nc1nc2cc(S(=O)(=O)Nc3ccc(C(=O)OC(C)C)cc3)ccc2[nH]1 [Example 540, isopropyl 4-(2-(2,6-dimethylphenylamino)-1H-benzo[d]imidazole-5-sulfonamido)benzoate] | < 3.86
CC(=O)c1cccc(Nc2nc3cc(S(=O)(=O)Nc4ccc(C(=O)OC(C)C)cc4)ccc3[nH]2)c1 [Example 541, isopropyl 4-(2-(3-acetylphenylamino)-1H-benzo[d]imidazole-5-sulfonamido)benzoate] | 7.07
CC(C)OC(=O)c1ccc(NS(=O)(=O)c2ccc3[nH]c(Nc4ccc(F)c(Cl)c4)nc3c2)cc1 [Example 542, isopropyl 4-(2-(3-chloro-4-fluorophenylamino)-1H-benzo[d]imidazole-5-sulfonamido)benzoate] | 6.24
CC(C)OC(=O)c1ccc(NS(=O)(=O)c2ccc3[nH]c(Nc4ccc(-n5cccn5)cc4)nc3c2)cc1 [Example 545, isopropyl 4-(2-(4-(1H-pyrazol-1-yl)phenylamino)-1H-benzo[d]imidazole-5-sulfonamido)benzoate] | 6.21
CC(=O)c1ccc(Nc2nc3cc(S(=O)(=O)Nc4ccc(C(=O)OC(C)C)cc4)ccc3[nH]2)cc1 [Example 548, isopropyl 4-(2-(4-acetylphenylamino)-1H-benzo[d]imidazole-5-sulfonamido)benzoate] | 7.12
CC(C)OC(=O)c1ccc(NS(=O)(=O)c2ccc3[nH]c(Nc4ccc(N(C)C)cc4)nc3c2)cc1 [Example 551, isopropyl 4-(2-(4-(dimethylamino)phenylamino)-1H-benzo[d]imidazole-5-sulfonamido)benzoate] | 6.55
CC(C)OC(=O)c1ccc(NS(=O)(=O)c2ccc3[nH]c(Nc4ccc(C#N)cc4)nc3c2)cc1 [Example 552, isopropyl 4-(2-(4-cyanophenylamino)-1H-benzo[d]imidazole-5-sulfonamido)benzoate] | 6.48

Further molecules by rising pIC50, results first:

pIC50 | SMILES
4.49 | O=S(=O)(Nc1ccc(-c2nnc(C3CCCCC3)o2)cc1)c1ccc2nc(-c3ccccc3)[nH]c2c1 [Example 519, N-(4-(5-cyclohexyl-1,3,4-oxadiazol-2-yl)phenyl)-2-phenyl-1H-benzo[d]imidazole-6-sulfonamide]
5.45 | O=S(=O)(Nc1ccc(-c2nnc(-c3ccccc3)o2)cc1)c1ccc2nc(-c3ccccc3)[nH]c2c1 [Example 518, 2-phenyl-N-(4-(5-phenyl-1,3,4-oxadiazol-2-yl)phenyl)-1H-benzo[d]imidazole-6-sulfonamide]
6.07 | CC(C)OC(=O)c1ccc(NS(=O)(=O)c2ccc3[nH]c(Nc4ccccc4F)nc3c2)cc1 [Example 546, isopropyl 4-(2-(2-fluorophenylamino)-1H-benzo[d]imidazole-5-sulfonamido)benzoate]
6.13 | CC(C)OC(=O)c1ccc(NS(=O)(=O)c2ccc3[nH]c(Nc4cccc(-n5ccsc5=O)c4)nc3c2)cc1 [Example 549, isopropyl 4-(2-(3-(2-oxothiazol-3(2H)-yl)phenylamino)-1H-benzo[d]imidazole-5-sulfonamido)benzoate]
6.19 | CC(C)OC(=O)c1ccc(NS(=O)(=O)c2ccc3[nH]c(Nc4cccc(F)c4F)nc3c2)cc1 [Example 533, isopropyl 4-(2-(2,3-difluorophenylamino)-1H-benzo[d]imidazole-5-sulfonamido)benzoate]
6.33 | COc1ccc(Nc2nc3cc(S(=O)(=O)Nc4ccc(C(=O)OC(C)C)cc4)ccc3[nH]2)cc1 [Example 523, isopropyl 4-(2-(4-methoxyphenylamino)-1H-benzo[d]imidazole-5-sulfonamido)benzoate]
6.39 | Cc1cccc(Nc2nc3cc(S(=O)(=O)Nc4ccc(C(=O)OC(C)C)cc4)ccc3[nH]2)c1 [Example 536, isopropyl 4-(2-(m-tolylamino)-1H-benzo[d]imidazole-5-sulfonamido)benzoate]
6.43 | CC(C)OC(=O)c1ccc(NS(=O)(=O)c2ccc3[nH]c(Nc4cccc(Cl)c4)nc3c2)cc1 [Example 547, isopropyl 4-(2-(3-chlorophenylamino)-1H-benzo[d]imidazole-5-sulfonamido)benzoate]
6.44 | COc1cccc(Nc2nc3cc(S(=O)(=O)Nc4ccc(C(=O)OC(C)C)cc4)ccc3[nH]2)c1 [Example 524, isopropyl 4-(2-(3-methoxyphenylamino)-1H-benzo[d]imidazole-5-sulfonamido)benzoate]
6.49 | CC(C)OC(=O)c1ccc(NS(=O)(=O)c2ccc3[nH]c(Nc4ccc(F)cc4)nc3c2)cc1 [Example 522, isopropyl 4-(2-(4-fluorophenylamino)-1H-benzo[d]imidazole-5-sulfonamido)benzoate]
6.55 | COc1cc(Nc2nc3cc(S(=O)(=O)Nc4ccc(C(=O)OC(C)C)cc4)ccc3[nH]2)cc(OC)c1OC [Example 543, isopropyl 4-(2-(3,4,5-trimethoxyphenylamino)-1H-benzo[d]imidazole-5-sulfonamido)benzoate]
6.62 | CC(C)OC(=O)c1ccc(NS(=O)(=O)c2ccc3[nH]c(Nc4ccc([N+](=O)[O-])cc4)nc3c2)cc1 [Example 550, isopropyl 4-(2-(4-nitrophenylamino)-1H-benzo[d]imidazole-5-sulfonamido)benzoate]
6.62 | CC(C)OC(=O)c1ccc(NS(=O)(=O)c2ccc3[nH]c(Nc4ccccc4)nc3c2)cc1 [Example 521, isopropyl 4-(2-(phenylamino)-1H-benzo[d]imidazole-5-sulfonamido)benzoate]
6.78 | CC(C)OC(=O)c1ccc(NS(=O)(=O)c2ccc3[nH]c(Nc4cccc(C#N)c4)nc3c2)cc1 [Example 525, isopropyl 4-(2-(3-cyanophenylamino)-1H-benzo[d]imidazole-5-sulfonamido)benzoate]
7.39 | CC(C)OC(=O)c1ccc(NS(=O)(=O)c2ccc3[nH]c(Nc4ccc(S(N)(=O)=O)cc4)nc3c2)cc1 [Example 528, isopropyl 4-(2-(4-sulfamoylphenylamino)-1H-benzo[d]imidazole-5-sulfonamido)benzoate]
7.46 | CC(C)OC(=O)c1ccc(NS(=O)(=O)c2ccc3[nH]c(Nc4ccc(Cl)c(S(N)(=O)=O)c4)nc3c2)cc1 [Example 544, isopropyl 4-(2-(4-chloro-3-sulfamoylphenylamino)-1H-benzo[d]imidazole-5-sulfonamido)benzoate]
